Test results from patent publication US10004701B2, “Methods and compositions for treating infection” (UNIVERSITY OF ROCHESTER, priority 2012, dated 2018).

How the values were obtained:
Assay in all cases: AK assay 384-well format, Prestwick library screening
[1] = tested on: A. baumannii strain 98-37-09; assay type: cell-based, Acinetobacter baumannii; conditions: 50 μM final drug concentration; for AK-based Prestwick Library Screening Results, A. baumannii (increase in extracellular AK activity): 384-well format
E. faecium = assay type: cell-based, Enterococcus faecium; conditions: 50 μM final drug concentration; for AK-based Prestwick Library Screening Results, E. faecium (increase in extracellular AK activity): 384-well format
K. pneumoniae = assay type: cell-based, Klebsiella pneumoniae; conditions: 50 μM final drug concentration; for AK-based Prestwick Library Screening Results, K. pneumoniae (increase in extracellular AK activity): 384-well format
P. aeruginosa = assay type: cell-based, Pseudomonas aeruginosa; conditions: 50 μM final drug concentration; for AK-based Prestwick Library Screening Results, P. aeruginosa (increase in extracellular AK activity): 384-well format
[2] = tested on: S. aureus strain USA300-0114; assay type: cell-based, Staphylococcus aureus; conditions: 50 μM final drug concentration; for AK-based Prestwick Library Screening Results, S. aureus (increase in extracellular AK activity): 384-well format
E. coli = assay type: cell-based, Escherichia coli; conditions: 50 μM final drug concentration; for AK-based Prestwick Library Screening Results, E. coli (increase in extracellular AK activity): 384-well format
E. cloacae = assay type: cell-based, Enterobacter cloacae; conditions: 50 μM final drug concentration; for AK-based Prestwick Library Screening Results, E. cloacae (increase in extracellular AK activity): 384-well format
[3] = cutoff for positive-scoring molecules 3-fold increase
[4] = planktonic, cutoff for positive-scoring molecules 3-fold increase

For (−)-MK 801 hydrogen maleate, the “AK-based Prestwick Library Screening Results, A. baumannii (fold increase in extracellular AK activity)” value ([1]; […]) was 1.1, the “AK-based Prestwick Library Screening Results, E. faecium (fold increase in extracellular AK activity)” value (E. faecium; […]) was 1.0 and the “AK-based Prestwick Library Screening Results, K. pneumoniae (fold increase in extracellular AK activity)” value (K. pneumoniae; […]) was 1.0. For the same substance, the “AK-based Prestwick Library Screening Results, P. aeruginosa (fold increase in extracellular AK activity)” value (P. aeruginosa; […]) was 1.3, the “AK-based Prestwick Library Screening Results, S. aureus (fold increase in extracellular AK activity)” value ([2]; […]) was 1.1 and the “AK-based Prestwick Library Screening Results, E. coli (fold increase in extracellular AK activity)” value (E. coli; […]) was 1.2. The “AK-based Prestwick Library Screening Results, E. cloacae (fold increase in extracellular AK activity)” value (E. cloacae; […]) was 1.9.
With Alverine citrate salt the “AK-based Prestwick Library Screening Results, A. baumannii (increase in extracellular AK activity)” value [1, 3] was 0.9, the “AK-based Prestwick Library Screening Results, E. faecium (increase in extracellular AK activity)” value (E. faecium; [3]) was 0.9 and the “AK-based Prestwick Library Screening Results, K. pneumoniae (increase in extracellular AK activity)” value (K. pneumoniae; [3]) was 0.7. The “AK-based Prestwick Library Screening Results, P. aeruginosa (increase in extracellular AK activity)” value (P. aeruginosa; [3]) was 0.8, the “AK-based Prestwick Library Screening Results, S. aureus (increase in extracellular AK activity)” value [2, 3] was 0.7 and the “AK-based Prestwick Library Screening Results, E. coli (increase in extracellular AK activity)” value (E. coli; [3]) was 0.9. For the same substance, the “AK-based Prestwick Library Screening Results, E. cloacae (increase in extracellular AK activity)” value (E. cloacae; [3]) was 0.9.
Antimycin A was tested, and the “AK-based Prestwick Library Screening Results: A. baumannii (increase in extracellular AK activity)” value ([1]; planktonic A. baumannii, 384-well, […]) was 1.4, the “AK-based Prestwick Library Screening Results: E. faecium (increase in extracellular AK activity)” value (E. faecium; planktonic E. faecium, 384-well, […]) was 1.1 and the “AK-based Prestwick Library Screening Results: K. pneumoniae (increase in extracellular AK activity)” value (K. pneumoniae; planktonic K. pneumoniae, 384-well, […]) was 1.0. For the same substance, the “AK-based Prestwick Library Screening Results: P. aeruginosa (increase in extracellular AK activity)” value (P. aeruginosa; planktonic P. aeruginosa, 384-well, […]) was 1.1, the “AK-based Prestwick Library Screening Results: S. aureus (increase in extracellular AK activity)” value ([2]; planktonic S. aureus, 384-well, […]) was 1.0 and the “AK-based Prestwick Library Screening Results: E. coli (increase in extracellular AK activity)” value (E. coli; planktonic E. coli, 384-well, […]) was 1.3. For the same substance, the “AK-based Prestwick Library Screening Results: E. cloacae (increase in extracellular AK activity)” value (E. cloacae; planktonic E. cloacae, 384-well, […]) was 1.3.
With Avermectin B1 the “AK-based Prestwick Library Screening Results, A. baumannii (fold increase in extracellular AK activity)” value [1, 4] was 0.8, the “AK-based Prestwick Library Screening Results, E. faecium (fold increase in extracellular AK activity)” value (E. faecium; [4]) was 1.2 and the “AK-based Prestwick Library Screening Results, K. pneumoniae (fold increase in extracellular AK activity)” value (K. pneumoniae; [4]) was 0.6. For the same substance, the “AK-based Prestwick Library Screening Results, P. aeruginosa (fold increase in extracellular AK activity)” value (P. aeruginosa; [4]) was 0.6, the “AK-based Prestwick Library Screening Results, S. aureus (fold increase in extracellular AK activity)” value [2, 4] was 1.7 and the “AK-based Prestwick Library Screening Results, E. coli (fold increase in extracellular AK activity)” value (E. coli; [4]) was 0.8. The “AK-based Prestwick Library Screening Results, E. cloacae (fold increase in extracellular AK activity)” value (E. cloacae; [4]) was 0.9.
In the case of Beta-Escin, the “AK-based Prestwick Library Screening Results, A. baumannii (fold increase in extracellular AK activity)” value [1, 4] is reported as 0.8, the “AK-based Prestwick Library Screening Results, E. faecium (fold increase in extracellular AK activity)” value (E. faecium; [4]) is reported as 0.9 and the “AK-based Prestwick Library Screening Results, K. pneumoniae (fold increase in extracellular AK activity)” value (K. pneumoniae; [4]) is reported as 0.7. The “AK-based Prestwick Library Screening Results, P. aeruginosa (fold increase in extracellular AK activity)” value (P. aeruginosa; [4]) was 0.7, the “AK-based Prestwick Library Screening Results, S. aureus (fold increase in extracellular AK activity)” value [2, 4] was 0.8 and the “AK-based Prestwick Library Screening Results, E. coli (fold increase in extracellular AK activity)” value (E. coli; [4]) was 0.9. The “AK-based Prestwick Library Screening Results, E. cloacae (fold increase in extracellular AK activity)” value (E. cloacae; [4]) was 1.4.
In the case of Bromocryptine mesylate, the “AK-based Prestwick Library Screening Results, A. baumannii (increase in extracellular AK activity)” value ([1]; […]) is reported as 1.4, the “AK-based Prestwick Library Screening Results, E. faecium (increase in extracellular AK activity)” value (E. faecium; […]) is reported as 0.9 and the “AK-based Prestwick Library Screening Results, K. pneumoniae (increase in extracellular AK activity)” value (K. pneumoniae; […]) is reported as 1.1. The “AK-based Prestwick Library Screening Results, P. aeruginosa (increase in extracellular AK activity)” value (P. aeruginosa; […]) was 1.1, the “AK-based Prestwick Library Screening Results, S. aureus (increase in extracellular AK activity)” value ([2]; […]) was 0.6 and the “AK-based Prestwick Library Screening Results, E. coli (increase in extracellular AK activity)” value (E. coli; […]) was 1.3. For the same substance, the “AK-based Prestwick Library Screening Results, E. cloacae (increase in extracellular AK activity)” value (E. cloacae; […]) was 1.4.
For Butirosin disulfate salt, the “AK-based Prestwick Library Screening Results, A. baumannii (fold increase in extracellular AK activity)” value [1, 4] was 0.5, the “AK-based Prestwick Library Screening Results, E. faecium (fold increase in extracellular AK activity)” value (E. faecium; [4]) was 0.8 and the “AK-based Prestwick Library Screening Results, K. pneumoniae (fold increase in extracellular AK activity)” value (K. pneumoniae; [4]) was 0.5. For the same substance, the “AK-based Prestwick Library Screening Results, P. aeruginosa (fold increase in extracellular AK activity)” value (P. aeruginosa; [4]) was 0.5, the “AK-based Prestwick Library Screening Results, S. aureus (fold increase in extracellular AK activity)” value [2, 4] was 0.5 and the “AK-based Prestwick Library Screening Results, E. coli (fold increase in extracellular AK activity)” value (E. coli; planktonic, […]) was 0.5. For the same substance, the “AK-based Prestwick Library Screening Results, E. cloacae (fold increase in extracellular AK activity)” value (E. cloacae; [4]) was 0.4.
For Carbinoxamine maleate salt, the “AK-based Prestwick Library Screening Results, A. baumannii (fold increase in extracellular AK activity)” value [1, 4] was 0.7, the “AK-based Prestwick Library Screening Results, E. faecium (fold increase in extracellular AK activity)” value (E. faecium; [4]) was 0.8 and the “AK-based Prestwick Library Screening Results, K. pneumoniae (fold increase in extracellular AK activity)” value (K. pneumoniae; [4]) was 0.6. For the same substance, the “AK-based Prestwick Library Screening Results, P. aeruginosa (fold increase in extracellular AK activity)” value (P. aeruginosa; [4]) was 0.6, the “AK-based Prestwick Library Screening Results, S. aureus (fold increase in extracellular AK activity)” value [2, 4] was 0.6 and the “AK-based Prestwick Library Screening Results, E. coli (fold increase in extracellular AK activity)” value (E. coli; [4]) was 0.7. For the same substance, the “AK-based Prestwick Library Screening Results, E. cloacae (fold increase in extracellular AK activity)” value (E. cloacae; [4]) was 0.7.
